Test results taken from patent US12084422B2, “Phenyl-n-quinoline derivatives for treating a RNA virus infection” (ABIVAX, priority 2018, dated 2024).
pEC50, pIC50: −log10 of the molar value.

Experiments:
[1] = system: Chikungunya Virus (CHIKV) strain LR2006-OPY1 with GFP modification (CHIK 5'LR); assay: Inhibition of Chikungunya virus (CHIKV) production in infected HEK293T cell line (GFP fluorescence); format: cell-based; settings: HEK-293T, infected HEK293T cells; for inhibition at 1 µM: compounds at 1 μM, MOI 0.1, 22 h, values above 100 lowered to 100, read-out: % CHIKV Inhibition Mean (n = 2); for pIC50: second round of experiments
Procedure: The ability of the compounds to inhibit viral replication was assessed with an experiment in which infected cells were treated by compounds of formula (I) at 1 μM. As a positive control for inhibition of Chikungunya, Ribavirin was used. Toxicity of the compounds was assessed in parallel.
Human embryonic kidney cells 293T (HEK293T, CRL-11268) were maintained in Dulbecco's modified Eagle's Medium (DMEM, 31966-021, Thermo Fisher Scientific) supplemented with 10% of fetal bovine serum (FBS), penicillin and streptomycin. After removal of the medium, cells were washed with a Ca^2+- and Mg^2+-free salt solution to remove all traces of serum. After aspiration of wash solution, cells were dissociated with 0.25% Trypsin-EDTA solution and incubated 30 s at least in 37° ° C. incubator. Concentration of cell suspension was determined by an automatic cell counter (EVE, NanoEntek) and, if needed, adjusted to 0.33×10^6 cells/mL with DMEM medium supplemented with 10% FBS.
100 μL of the cell suspension were dispatched in a ViewPlate-96 Black (6005182, PerkinElmer) and in a transparent 96-well cell culture plate (655180, Greiner bio-one). After an incubation for 24 h at 37° C. under 5% of CO2, compounds were added at the proper concentration.
An intermediate dilution was prepared with DMSO (D8418, Sigma) at 2 mM in a 96-well V-bottom microplate from the stock solution:
Mix 1 μL of the 50 mM stock library in 25 μL of DMSO.
Mix 2 μL of the 25 mM stock library in 25 μL of DMSO.
An intermediate dilution was prepared with DMSO (D8418, Sigma) at 25 mM in a 96-well V-bottom microplate from the stock solution:
Mix 2 μL of the 50 mM stock library in 2 μL of DMSO.
Serial dilutions were performed in 2 μL of DMSO 13 times to reach 0.0015 mM as follows in table III:
For both screen and determination of IC50 1 μL of each solution was added in a 1 mL Masterblock 96 wells (Greiner bio-one, 780261) containing 1 mL of DMEM medium. As a positive control, 5 μL of a 80 mM Ribavirin solution (R9644, Sigma) is added to 1 mL of DMEM. On the other hand, DMSO is used as a negative control.
[…]. Vector Borne Zoonotic Dis. 2006; 6(4)). This modified virus was used to infect cells at MOI 0.1. […].
Medium was removed after 22 h at 37° ° C. under 5% of CO2 and cells were washed as described above. 60 μL of RIPA buffer (50 mM Tris-HCl pH8, 100 mM NaCl, 1 mM MgCl2, 1% Triton X-100) was added to cells and incubated for at least 20 min before reading fluorescence signal. Pierce 660 nm Protein Assay Reagent (22660, Thermo scientific) was used to normalize fluorescence signal by protein quantity.
A first round of experiments has been performed wherein the results are expressed as inhibition percentage, which is calculated as follows, through the following steps:
1. Fluorescence intensity (FI) 509 nm/Absorbance 660 nm (A660)=A
This ratio allows considering the infection (GFP virus) to the protein amount.
2. A′=A—background noise of non-infected plate,
3. B=Fluorescence intensity (FI)/Absorbance 660 nm (A660) of infected but non treated plates,
4. C=A′/B which is then converted as the percentage of infection after treatment, compared to non-treated sample, and subsequently as the […]. For instance, a value of 100 in Table IV here below means that, after treatment, the signal attributed to GFP fluorescence is abolished, which is correlated to the absence of infection.
This value corresponds to the inhibition's percentage.
The following Table IV encompasses said C′ value for some compounds as calculated above with a mean of 2 experiments, and the corresponding standard deviation.
Some values were originally above 100. In these cases, the value has been lowered to 100. This means that some molecules also have an impact on the viability of the cells. In other words, the A value may be lower than the background noise.
Moreover, for each measure, the test was performed with Ribavirin as control. The value of the inhibition percentage was checked, giving 100%.

[2] = system: RSV A2; assay: Screening for RSV inhibition using Viral ToxGlo assay in HEp-2 cells; format: cell-based; settings: human respiratory syncytial virus, HEp-2, 72 h
Procedure: Protocol for Screening Antiviral Compounds for RSV Inhibition and Cytotoxicity Using Viral ToxGlo Assay
HEp-2 cells were maintained in Eagle's minimum essential medium (EMEM) with Earle's BSS adjusted to contain 2 mM L-glutamine, 10% fetal bovine serum, 100 U/ml penicillin and 100 μg/ml streptomycin. For the purposes of the screening assay they were grown to 90% confluency, trypsinized and recovered. The trypsin was neutralised with cell culture media and cells were centrifuged at 150×g for 5 minutes before discarding the supernatant and resuspending cell pellet in assay media (EMEM with Earle's BSS adjusted to contain 2 mM L-glutamine, 2% fetal bovine serum and 100 U/ml penicillin and 100 μg/ml streptomycin). The cells were seeded into white clear-bottomed cell culture plates at a density of 1.5×10^4 cells/well in 50 μl and 4×10^3 cells/well in 25 μl for 96 well plates and 384 well plates respectively. For the media/background control column assay media only was added. Cell plates were placed in a humid chamber and incubated overnight at 37° C./5% CO2. After overnight incubation cells were checked for confluency and healthy appearance.
Test articles were made up at 10× test concentration in a maximum DMSO concentration of 10% (final assay concentration maximal 1% DMSO) and added to the cell plates in volumes of 10 μl for 96 well plates and 5 μl for 384 well plates. For cell control and virus control wells the test article solvent only was added. Virus or assay media for cytotoxicity test wells and media/cell control wells was added immediately after test articles at an MOI of 0.5, 40 or 20 μl for 96 and 384 well plates respectively. Virus suspension was prepared by thawing RSV A2 frozen stocks and diluting to the required concentration of plaque forming units in assay media on ice.
Cell plates were further incubated inside a humid chamber for 72 h p.i at 37° C./5% CO2. After the incubation period cells were observed under the microscope to check for characteristic cytopathic effect in virus control wells and healthy cells in the cell control wells. After plates were adjusted to room temperature 20/40 μl Viral ToxGlo (Promega) was added to each well of the 384/96 well cell plates. Plates were incubated at room temperature, protected from light on a plate rocker for 20 minutes before measuring the luminescence on a spectrophotometer (Biotek Synergy HTX).
RSV inhibition was calculated as percentage of cytopathic effect inhibition relative to the virus control and cytotoxicity as percentage of cell survival relative to cell control wells. This allowed EC50 values to be calculated for each test article where a virus inhibition or cytotoxic dose response was identified. EC50 values ranging between 0.001 µM and 5 μM could thus be determined for compounds 1, 6, 10, 13, 28, 38, 43, 47, 48, 49, 50, 51, 52, 53, 54, 55, 56 and 57.

| SMILES | inhibition at 1 µM [1] [%] | pIC50 [1] | pEC50 [2] |
| --- | --- | --- | --- |
| Cc1cc(OC(C)C)ccc1Nc1ccc2cccc(Cl)c2n1 [Compound 10, 8-chloro-N-(4-isopropoxy-2-methylphenyl)quinolin-2-amine] | 100 | 6.70 to 9.00 | 6.23 |
| CCc1cc(OC(C)C)ccc1Nc1ccc2cccc(Cl)c2n1 [Compound 13, 8-chloro-N-(2-ethyl-4-isopropoxyphenyl)quinolin-2-amine] | 100 | 6.70 to 9.00 | 5.93 |
| Cc1cc(OC(C)C)c(C)cc1Nc1ccc2cccc(Cl)c2n1 [Compound 43, 8-chloro-N-(4-isopropoxy-2,5-dimethylphenyl)quinolin-2-amine] |  | 6.70 to 9.00 | 6.46 |
